Experimental data taken from patent US20220202783A1, “Use Of ADAM9 Inhibitor As Immunomodulator” (China Medical University, priority 2019, published 2022).

What was measured:
[1] = system: lung cancer cells (Bm7brmx2-1st); experiment: cytotoxicity assay in Bm7brmx2-1st cells; assay type: cell-based; design: key to effect of inhibiting tumor cell growth: “+” represents that the compound has the effect of inhibiting tumor cell growth
Procedure: (§1) Please refer to FIG. 1A, FIG. 1B and Table 2, which show the analysis results of the compound of Formula (I) inhibiting ADAM9 activity. In FIG. 1A, Bm7 lung cancer cells were treated with the derivatives of the compound 6X-0310, and then cultured under anchorage-free culture condition. The expressions of ADAM9 and CDCP1 in Bm7 lung cancer cells were detected by Western blot, in which EF1α is an internal control, and mock represents Bm7 lung cancer cells without treatment. […] In the experiment, the compounds of Formula (I) of Example 1 to Example 32 were further performed cytotoxicity assay to measure the IC50 value of the compounds of Formula (I) of the present disclosure in lung cancer cell lines.

recombinant human ADAM9 = target: T1, recombinant human ADAM9 (Homo sapiens, UniProt Q13443); experiment: ADAM9 enzymatic activity ELISA with fluorescent peptide substrate; assay type: biochemical; conditions: different concentrations
T1 construct: purchased R&D system
T1 sequence (Q13443 29-819): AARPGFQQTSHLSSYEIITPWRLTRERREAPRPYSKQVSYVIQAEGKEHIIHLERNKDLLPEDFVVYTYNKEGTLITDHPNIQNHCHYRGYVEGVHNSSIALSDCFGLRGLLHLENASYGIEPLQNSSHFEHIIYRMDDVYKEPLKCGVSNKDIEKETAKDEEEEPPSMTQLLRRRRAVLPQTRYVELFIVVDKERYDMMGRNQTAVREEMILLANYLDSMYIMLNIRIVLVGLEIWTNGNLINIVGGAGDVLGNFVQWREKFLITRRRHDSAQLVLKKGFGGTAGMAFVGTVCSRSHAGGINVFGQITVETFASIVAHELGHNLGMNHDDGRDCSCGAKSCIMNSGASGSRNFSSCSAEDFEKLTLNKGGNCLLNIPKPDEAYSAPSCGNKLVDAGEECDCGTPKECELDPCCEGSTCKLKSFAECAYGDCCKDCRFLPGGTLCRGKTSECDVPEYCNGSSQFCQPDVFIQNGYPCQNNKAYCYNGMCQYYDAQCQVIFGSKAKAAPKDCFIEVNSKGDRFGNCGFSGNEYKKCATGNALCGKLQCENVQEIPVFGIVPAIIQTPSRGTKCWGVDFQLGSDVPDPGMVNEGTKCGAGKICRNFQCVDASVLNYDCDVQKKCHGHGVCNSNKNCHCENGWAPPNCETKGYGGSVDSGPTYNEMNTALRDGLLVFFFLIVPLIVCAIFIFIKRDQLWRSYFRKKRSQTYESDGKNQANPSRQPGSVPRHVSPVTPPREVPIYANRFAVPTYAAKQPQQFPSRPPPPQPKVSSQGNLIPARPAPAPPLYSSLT
From the text: To measure the efficacy of the compound of Formula (I) in suppression of ADAM9 enzymatic activity, an ELISA system was established using recombinant human ADAM9 and a fluorescent peptide substrate (R&D system) in the experiment. Broad-spectrum MMP inhibitor-BB-94 was included as a positive control. The compounds of Formula (I) used in this experiment were the compound SW1 and the compound SW2.

leukocytes = experiment: anoikis in anchorage-free culture, leukocytes; assay type: cell-based; conditions: Leukocyte, read-out: IC50 value for anoikis (anchorage-free induced apoptosis)
Procedure: (§2) To ensure the compound SW1 and the compound SW2 in blocking anoikis-resistance of cancer cells, the IC50 value (unit is μM) of the compound SW1 and the compound SW2 for anoikis (anchorage-free induced apoptosis) in lung cancer brain metastatic cell line-Bm7brmx2, breast cancer brain metastatic cell line-MDA-231 brm and leukocytes in anchorage-free culture conditions were determined.

[2] = system: lung cancer cells (H1299); experiment: cytotoxicity assay in H1299 cells; assay type: cell-based; design: key to effect of inhibiting tumor cell growth: “+” represents that the compound has the effect of inhibiting tumor cell growth; conditions: for effect of inhibiting tumor cell growth: H1299; for IC50: Homo sapiens, NCI-H1299
Procedure: as §1

lung cancer cells (A549) = experiment: cytotoxicity assay in A549 cells; assay type: cell-based; design: key to effect of inhibiting tumor cell growth: “+” represents that the compound has the effect of inhibiting tumor cell growth; conditions: for IC50: Homo sapiens
Procedure: as §1

Bm7 lung cancer cells [3] = experiment: tumor sphere formation; assay type: cell-based; conditions: 25 μM, 12 hours
Procedure: In the experiment, the Bm7 lung cancer cells were treated with 25 μM of the compound SW1 or the compound SW2 for 12 hours, and the number of tumor spheres formed was determined. Please refer to FIG. 2H, where mock represents Bm7 lung cancer cells without treatment.

[4] = system: lung cancer brain metastatic cell line-Bm7brmx2; experiment: anoikis in anchorage-free culture, Bm7brmx2; assay type: cell-based; conditions: read-out: IC50 value for anoikis (anchorage-free induced apoptosis)
Procedure: as §2

Su86-86-GFP-Luc = experiment: cytotoxicity on pancreatic cancer cells, Su86-86-GFP-Luc; assay type: cell-based; conditions: Pancreatic cancer cell
Procedure: (§3) In addition, the IC50 values (unit is μM) of the compound SW1 and the compound SW2 on pancreatic cancer cells were measured in the experiment.

Bm7 lung cancer cells [5] = experiment: migration inhibition assay; assay type: cell-based; conditions: 25 μM, control Bm7 lung cancer cells (shGFP)
Procedure: To further evaluate the specificity of the compound SW1 and the compound SW2, control Bm7 lung cancer cells (treated with shGFP) and ADAM9 knockout (KO) Bm7 lung cancer cells (treated with shADAM9) were treated with 25 μM of the compound SW1 or the compound SW2, respectively, and then performed a migration inhibition assay.

[6] = system: control Bm7 lung cancer cells; experiment: colony-forming assay, Bm7; assay type: cell-based; conditions: 20 μM, control Bm7 lung cancer cells (shGFP)
Procedure: To further test the planting efficiency of tumor cells treated with the compound SW1 and the compound SW2, in the experiment, control Bm7 lung cancer cells (treated with shGFP) and ADAM9 KO Bm7 lung cancer cells (treated with shADAM9) were treated with 20 μM of the compound SW1 or the compound SW2 respectively, and TC1-wild-type (WT) lung cancer cells and TC1-ADAM9 KO lung cancer cells were treated with 10 μM of the compound SW1 or the compound SW2 respectively. Then colony-forming assay was used to confirm the planting efficiency of each test group. Please refer to FIGS. 2D and 2E, wherein mock represents the tumor cell lines without treatment of the compound SW1 or the compound SW2. Representative images of colony-forming assay are shown at the bottom, and data are means±SD of 6 separate wells.

Pan18-GFP-Luc = experiment: cytotoxicity on pancreatic cancer cells, Pan18-GFP-Luc; assay type: cell-based; conditions: Pancreatic cancer cell
Procedure: as §3

Bm7 lung cancer cells [7] = experiment: cytotoxicity assay, FIG. 1B and Table 2 summary; assay type: cell-based
Procedure: as §1

Panc-1 = experiment: cytotoxicity on pancreatic cancer cells, Panc-1; assay type: cell-based; conditions: Homo sapiens
Procedure: as §3

[8] = system: lung cancer cells (Bm7brmx2-2nd); experiment: cytotoxicity assay in Bm7brmx2-2nd cells; assay type: cell-based; design: key to effect of inhibiting tumor cell growth: “+” represents that the compound has the effect of inhibiting tumor cell growth
Procedure: as §1

[9] = system: breast cancer brain metastatic cell line-MDA-231 brm; experiment: anoikis in anchorage-free culture, MDA-231brm; assay type: cell-based; conditions: read-out: IC50 value for anoikis (anchorage-free induced apoptosis)
Procedure: as §2

[10] = system: kidney cancer cells (293); experiment: cytotoxicity assay in 293 cells; assay type: cell-based; design: key to effect of inhibiting tumor cell growth: “+” represents that the compound has the effect of inhibiting tumor cell growth; conditions: Homo sapiens, HEK293
[11] = cytotoxicity assay in 293 cells; assay type: cell-based; design: key to effect of inhibiting tumor cell growth: “+” represents that the compound has the effect of inhibiting tumor cell growth; conditions: 293
lung cancer cells (TC1) = experiment: cytotoxicity assay in TC1 cells; assay type: cell-based; design: key to effect of inhibiting tumor cell growth: “+” represents that the compound has the effect of inhibiting tumor cell growth; conditions: for IC50: TC-1
Procedure: as §1

TC1-WT lung cancer cells = experiment: Annexin V and PI staining for cell apoptosis; assay type: cell-based; conditions: 24 hours, compared with TC1-ADAM9 KO lung cancer cells
Procedure: In the experiment, TC1-WT lung cancer cells and TC1-ADAM9 KO lung cancer cells were further treated with the compound SW1 or the compound SW2 for 24 hours, and then stained with Annexin V and PI to detect cell apoptosis. Please refer to FIG. 2F, where the percentage of Annexin V+ cells (apoptotic cells) is the statistical result from three independent experiments, with mean±SD.

PE10 WBC = experiment: cytotoxicity assay in PE10 WBC; assay type: cell-based; design: key to effect of inhibiting tumor cell growth: “+” represents that the compound has the effect of inhibiting tumor cell growth

Row | IC50 (leukocytes) [µM] | IC50 [4] [µM] | IC50 [9] [µM] | Compound | IC50 [1] [µM] | effect of inhibiting tumor cell growth [1] | inhibition of ADAM9 activity (recombinant human ADAM9) | effect of inhibiting tumor cell growth [2] | IC50 [2] [µM] | effect of inhibiting tumor cell growth (lung cancer cells (A549)) | IC50 (lung cancer cells (A549)) [µM] | number of tumor spheres formed (Bm7 lung cancer cells [3]) | IC50 (Su86-86-GFP-Luc) [µM] | migration ability (Bm7 lung cancer cells [5]) | planting efficiency, colony-forming assay [6] | IC50 (Pan18-GFP-Luc) [µM] | tumor cell cytotoxicity compared with the core structure compound 6X-0310 (Bm7 lung cancer cells [7]) | IC50 (Panc-1) [µM] | IC50 [8] [µM] | effect of inhibiting tumor cell growth [8] | IC50 [10] [µM] | further results
1 | 76 | 27 | 7.5 | O=C(Nc1nc(CCN2C(=O)c3ccccc3C2=O)cs1)c1cc2ccccc2s1 [SW2] | 44.3 | + | decrease ADAM9 activity to a similar extent in a dose-dependent manner | + | 32 | + | 458 | greatly reduce the number of tumor spheres | 66.8 | significantly reduce the migration ability | greatly reduce the planting efficiency | 112 | stronger tumor cell cytotoxicity | 34.2 | 45.1 | + | 15 | effect of inhibiting tumor cell growth [11]: +; effect of inhibiting tumor cell growth (lung cancer cells (TC1)): +; IC50 (lung cancer cells (TC1)): 64.2 µM; cell apoptosis (Annexin V+ cells) (TC1-WT lung cancer cells): induce cell apoptosis; IC50 (PE10 WBC): 76.5 µM; effect of inhibiting tumor cell growth (PE10 WBC): +
2 | > 200 | 20 | 4.5 | O=C1c2ccccc2C(=O)N1CCc1csc(Nc2nc(CCN3C(=O)c4ccccc4C3=O)cs2)n1 [SW1] | 40.4 | + | decrease ADAM9 activity to a similar extent in a dose-dependent manner | + | 76.9 | + | 434 | greatly reduce the number of tumor spheres | 59.2 | significantly reduce the migration ability | greatly reduce the planting efficiency | 0.3 | stronger tumor cell cytotoxicity | 424 | 43.5 | + | 81.3 | effect of inhibiting tumor cell growth [11]: +; effect of inhibiting tumor cell growth (lung cancer cells (TC1)): +; IC50 (lung cancer cells (TC1)): 80.4 µM; cell apoptosis (Annexin V+ cells) (TC1-WT lung cancer cells): induce cell apoptosis; IC50 (PE10 WBC): 14500 µM; effect of inhibiting tumor cell growth (PE10 WBC): +
